Entries after “also recorded” stand apart in the source; their conditions may differ.
How the values were obtained:
[1] = test system: PC12 cells; assay: Reversal of TS-induced neuroprotection by PI-3 kinase inhibitors in PC12 cells; format: cell-based, rat; set-up: neuronal viability relative to TS-F without wortmannin / neuronal viability relative to TS-F+CNTF without wortmannin: dose or concentration left out as unconfirmed
Description: (§1) Protection against apoptosis of PC12 cells in serum-free medium containing a test agent (agent N)(e.g., protection induced by TS, TS fragments, NGF or other growth factors), was calculated by the formula: 100%-[(apoptosis(%) of cells kept in RPMI containing test agent N÷apoptosis (%) of cells kept in RPMI)×100%]. Testing the effect of wortmannin (Sigma) and LY294002 (Sigma) in inhibiting the neuroprotection of TS was performed following the protocol described by others (Yao and Cooper, Science, 267:2003-2006 (1995); D'Mello et al., J. Neurosci 17:1548-1560 (1997)). In brief, PC12 cells were switched from growth medium to RPMI without and with TS or various other growth factors. After 24 hr, wortmannin and LY294002 were added to the cultures. After another 24 hrs, cells were examined for apoptosis by the DAPI assay, as above.

[2] = test system: peripheral blood mononuclear cells (PBMC); assay: IL-6 secretion by PBMC (ELISA); format: cell-based, human; set-up: IL-6 secretion by PBMC: dose or concentration left out as unconfirmed; conditions: 24 hrs culture
Description: (§2) Primary cultures of human intestinal microvascular endothelial cells (HIMEC) isolated from normal jejunal mucosa/submucosal tissue were prepared as described (Strong et al., Gastroenterology 114: 1244-1256 (1998)). The HIMEC were cultured in fibronectin-coated plasticware in MCDB medium (Sigma) supplemented with 20% FBS, 90 μg/ml heparin and 50 μg/ml endothelial cell growth factor (Sigma). T-24 cells (ATCC Accession No. HTB-4) were cultured in M199 medium supplemented with 10% FBS. PBMC were purified by Ficoll-Paque gradient as described (Current Protocols in Immunology, pp 7.1.1-7.1.2). Vero cells (ATCC Accession No. CCL-81) were grown in RPMI medium with 5% Nu serum and infected with the Silvio X-10/4 of T. cruzi as described previously (Chuenkova et al., J. Exp. Med. 181: 1693-1703, (1995)).
Endothelial cells and T-24 cells were plated on 24-well plates at a density of 1×10^3 cells/well, while peripheral blood mononuclear cells (PBMC) were plated in the similar wells at 1×10^6/well. Triplicat cultures of cells were incubated test agents for a predetermined amount of time. […] Cytokines and chemokines released in the culture supernatants were measured by ELISA assay following the instructions of the manufacturer (Endogen). The cytokines tested were IL-1β, IL-4, IL-8, IL-10, IL-12, IFN-γ, TNF-α, and the chemokines RANTES and MCP-1. Negative controls were cells incubated in medium containing polymixin B at 10 μg/ml, and positive controls were cells incubated with bacterial LPS at the low ng/ml range (for PBMC or HIMEC) or in the μg/ml range for carcinoma T-24 cells. In some experiments, IL-1β, or TNFα were used as positive control for cytokine release.
TR peptides (Table 2) were synthesized at the Tufts Synthesis Facility (Boston, Mass.). Each peptide was purified by HPLC, and the number of amino acids and molecular weight of each peptide verified by mass spectrometry. Peptides were dissolved in growth medium (10% FCS in RPMI) and added at various concentrations to 1×10^6 PBMC/well in 24-well plates. After 24 hrs, IL-6 was assayed by ELISA in the conditioned supernatants.

[3] = test system: PC12 cells; assay: Trophic factor withdrawal-induced apoptosis of PC12 cells (DAPI/TUNEL); format: cell-based, rat; conditions: for inhibition of apoptosis of PC12 cells by peptides: further studies; for protection of PC12 cells from apoptosis induced by trophic factor withdrawal: 17 hours
Description: (§3) PC12 cells were obtained from ATCC (Manassas, Va. (Accession No. CRL-1721)) and cultured on collagen-coated dishes in RPMI 1640 supplemented with 10% horse serum and 5% fetal bovine serum (Greene, L. A. and Tishler, A. S., Proc. Natl. Acad. Sci. USA, 73: 2424-2428 (1976)). For differentiation and survival experiments, cells were washed three times in serum-free RPMI/0.2% BSA, plated in the same medium in collagen-coated plastic dishes at 2×10^5/ml, without and with growth factors, TS, recombinant proteins, synthetic peptides, for the time and concentrations indicated in the Figures.
Cell staining with 4,6-diamino-2-phenylindole (DAPI). Cells were fixed with 4% formaldehyde in PBS for 5 minutes, washed with PBS, stained with 10 μg/ml DAPI (Sigma) for 2 minutes, washed with PBS, and visualized under UV light using a fluorescent microscope. About 300-400 cells were examined under the microscope to determine the percentage of apoptotic cells.
Cell DNA nick end labeling (TUNEL) (Gavrieli, Y., et al., J. Cell. Biol. 119: 493-501 (1992)) assay was performed using a kit purchased from Boehringer Mannheim as described by the manufacturer.
as §1

[4] = test system: human Schwann cells; assay: Serum withdrawal-induced apoptosis of immortalized human Schwann cells (DAPI); format: cell-based; conditions: for inhibition of apoptosis of Schwann cells by peptides: further studies
[5] = test system: PC12 cells; assay: Neurite outgrowth assay in PC12 cells; format: cell-based, rat
Description: as §3
96-well microtiter plates were coated overnight at 4° C. with the TS or peptides or fragments thereof, or with control proteins laminin (Ln) or bovine serum albumin (BSA) at 500 μg/ml. After removing the compounds, the plates were further incubated with 1% BSA for 1 hour at room temperature and immediately used as substratum for PC12 or N18 (Prasad, K. N., Biol Rev Camb Philos Soc, 66:431-451 (1991)) cells in serum-free RPMI/0.2% BSA. Neurite outgrowth was measured using a phase-contrast microscope 17 hours later.

[6] = test system: normal human neutrophils; assay: IL-6 production by normal human neutrophils; format: cell-based
[7] = test system: human intestinal microvascular endothelial cells (HIMEC); assay: IL-6 secretion by HIMEC (ELISA); format: cell-based; conditions: 24 hrs culture
Description: as §2
Endothelial cells and T-24 cells were plated on 24-well plates at a density of 1×10^3 cells/well, while peripheral blood mononuclear cells (PBMC) were plated in the similar wells at 1×10^6/well. Triplicat cultures of cells were incubated test agents for a predetermined amount of time. […] Cytokines and chemokines released in the culture supernatants were measured by ELISA assay following the instructions of the manufacturer (Endogen). The cytokines tested were IL-1β, IL-4, IL-8, IL-10, IL-12, IFN-γ, TNF-α, and the chemokines RANTES and MCP-1. […]

[8] = test system: N18 cells; assay: Neurite outgrowth assay in N18 cells; format: cell-based; conditions: immobilized proteins coated at 500 μg/ml, 17 hours (FIG. 3A)
Description: FIG. 3A is a graph showing that neurite outgrowth in N18 cells is induced by immobilized laminin (Ln), immobilized TS and immobilized fragments of TS. Proteins were immobilized by incubating plates which contained wells filled with solutions of the proteins (protein concentration was 500 μg/ml) at 4° C. overnight. The protein solutions were removed and the plates were further incubated with 1% BSA at room temperature for one hour. N18 cells were cultured in the coated wells in serum-free RPMI-1640/0.2% BSA for 17 hours, and neurite outgrowth was measured by phase-contrast microscopy. […] Ln, laminin; TS, purified T. cruzi trans-sialidase; 7F, recombinant TS from clone 7F; 19Y, recombinant TS from clone 19Y; TS-F, recombinant fragment consisting of amino acid residues 33-666 of TS (SEQ ID NO:2); TS-CC-47, recombinant fragment consisting of amino acid residues 79-478 of TS (SEQ ID NO:2); TS-Cat-47, recombinant fragment consisting of amino acid residues 79-415 of TS (SEQ ID NO:2); BSA, bovine serum albumin.
96-well microtiter plates were coated overnight at 4° C. with the TS or peptides or fragments thereof, or with control proteins laminin (Ln) or bovine serum albumin (BSA) at 500 μg/ml. […] Neurite outgrowth was measured using a phase-contrast microscope 17 hours later.

[9] = test system: primary cultures of rat Schwann cells; conditions: reported (Weiner and Chun 1999); cited from earlier work
[10] = neurite outgrowth assay, concentration not given
[11] = synthetic peptides 1 μM, DAPI (FIG. 6B)

Compound	inhibition of apoptosis of PC12 cells by peptides [3]	inhibition of apoptosis of Schwann cells by peptides [4]	neurite outgrowth in PC12 cells [5, 10]	apoptosis suppressing effect of peptide in presence of PI-3 kinase inhibitor LY294002, PC12 cells [3]	apoptosis suppressing effect of peptide in presence of PI-3 kinase inhibitor LY294002, Schwann cells [4]	further results
COC[C@H]1OC(=O)c2coc3c2[C@@]1(C)C1=C(C3=O)[C@@H]2CCC(=O)[C@@]2(C)C[C@H]1OC(C)=O [wortmannin]						neuronal viability relative to TS-F without wortmannin ([1]; wortmannin with TS-F): 57±2%; neuronal viability relative to TS-F+CNTF without wortmannin ([1]; wortmannin with TS-F+CNTF): 80±3%
DSSAHGAPSTPA [peptide TR1]						IL-6 secretion by PBMC [2]: less active
DSSAHGAPSTPADSSAHGTPSTPV [TR2]						IL-6 secretion by PBMC [2]: less active
DSSAHGAPSTPADSSAHGTPSTPVDSSAHGTPSTPA [TR3]						IL-6 secretion by PBMC [2]: less active
DSSAHGAPSTPADSSAHGTPSTPVDSSAHGTPSTPADSSAHSTPSTPA [TR4]						IL-6 secretion by PBMC [2]: active in promoting IL-6 release
DSSAHGAPSTPADSSAHGTPSTPVDSSAHGTPSTPADSSAHSTPSTPADSSAHSTPSTPA [TR5]						IL-6 secretion by PBMC [2]: active in promoting IL-6 release
DSSAHGTPSTPA [peptide TR, control peptide derived from the tandem repeat]	did not inhibit apoptosis	did not inhibit apoptosis	did not induce neurite outgrowth; also recorded: did not promote neurite outgrowth			
GNASQNVWEDAYRCVNASTAN [C19Y21]	potent suppressors of apoptosis	potent suppressors of apoptosis		inhibited	inhibited	
GNASQNYWEDAYRC [CYN2]	suppressed apoptosis but was less active	suppressed apoptosis but was less active		inhibited	inhibited	
QPLRRQRVVVVPLSPRLVLLAFCRQRLPLKRMGGSYRCVNASTAN [peptide C44]	potent suppressors of apoptosis	potent suppressors of apoptosis	had direct neurotrophic activity; also recorded: induce dose dependent outgrowth of neurites	inhibited	inhibited	protection of PC12 cells from apoptosis induced by trophic factor withdrawal [3, 11]: protected PC12 cells from apoptosis
RQRLPKRMGGSYRC [peptide C14]	potent suppressors of apoptosis	potent suppressors of apoptosis	had direct neurotrophic activity; also recorded: induce dose dependent outgrowth of neurites	inhibited	inhibited	protection of PC12 cells from apoptosis induced by trophic factor withdrawal [3, 11]: protected PC12 cells from apoptosis
RQRLPKRMGGSYRCVNASTAH [CFN1]	potent suppressors of apoptosis	potent suppressors of apoptosis	had direct neurotrophic activity	inhibited	inhibited	
TNF-A						IL-6 production by normal human neutrophils [6]: did elicit secretion of IL-6
VCNA: neuraminidase from Vibrio cholera, Calbiochem [reference compound]			did not induce neurite outgrowth			protection of PC12 cells from apoptosis induced by trophic factor withdrawal ([3]; serum-free RPMI-1640/0.2% BSA, DAPI or TUNEL): did not; neurite outgrowth in PC12 cells ([5]; soluble in serum-free RPMI-1640/0.2% BSA, collagen coated dishes, 16 hours, NGF 0.1 μg/ml, VCNA 2.4 μg/ml, TS 1 μg/ml): does not induce neurite outgrowth; IL-6 secretion by HIMEC [7]: did not stimulate detectable IL-6 secretion
VNASTAN [CYFN]	did not inhibit apoptosis	did not inhibit apoptosis		inhibited	inhibited	
YSVDDGETWE [peptide B2, control peptide]	did not inhibit apoptosis	did not inhibit apoptosis	did not induce neurite outgrowth; also recorded: did not promote neurite outgrowth			
laminin [reference compound]						neurite outgrowth in N18 cells [8]: induced
lysophosphatidic acid						active dose for primary cultures of rat Schwann cells [9]: ≥ 10 nM

Reference: US8114412B2, “T. cruzi-derived neurotrophic agents and methods of use therefor” (priority 1999, dated 2012)
